Marks after values point to notes of the source that are not given here.
Columns and labels:
adjuvant arthritis [1] = assay: Developing adjuvant arthritis model (chronic adjuvant arthritis test); assay type: in vivo, male Charles River Lewis rats; conditions: for % Change in Paw Volume (day 23) left / % Change in Paw Volume (day 23) right / % Change in plasma fibrinogen: vs vehicle-treated arthritic animals; for Body Weight gain(g): body weight on day 23 minus day 0
Procedure: That the compounds of this invention are effective anti-arthritic agents can be seen from the results obtained when these compounds are administered to rats in accordance with the chronic adjuvant arthritis test system disclosed in Billingham and Davies "Handbook of Experimental Pharmacology" (editors J.R. Vane and S.H. Ferreira) Vol. 50/II, pg. 108-144, Springer-Verlag, Berlin, 1979). In this procedure, adjuvant arthritis was induced by the injection on day 0 to 0.10 ml of adjuvant (a suspension of heat-killed, dessicated Mycobacterium butyricum, 0.5% (w/v), in heavy mineral oil containing 0.2% digitonin) subplantarly into the right hind paw ("developing" model) or the base of the tail ("established" model) of male Charles River Lewis rats (120-140 g) that were housed individually and given food and water ad lib. Paw volumes (both hind paws) were measured immediately after injection of the adjuvant. Paw volumes were also measured at selected time intervals to follow the development of inflammation-induced swelling in the arthritic paws by immersion of the paw to the level of the lateral malleolus in a mercury plethysmograph. In the developing adjuvant arthritis model [Table 1], drugs were administered once a day (starting on the day of adjuvant injection and continuing for 23 days) by intubation using Tween 80 (polyoxyethylene sorbitan mono-oleate) at a dose of 0.25 ml/100 g body weight as the vehicle. Arthritic control rats received daily doses of the vehicle only. On day 23, i.e., approximately 24 hours after the last dose of drug, the rats were sacrificed, plasma was collected and plasma fibrinogen levels were determined (ammonium sulfate turbidimetric method) as described by Exner et al., Amer. J. Clin. Path., 71:521-527 (1979). Anti-inflammatory activity of the test drugs were determined by comparing the extent of paw swelling (paw volume on day 23 minus the paw volume on day 0) in drug-treated arthritic rats with the extent of paw swelling in the vehicle-treated arthritic rats. Drug induced decreases in the level of plasma fibrinogen, an acute phase protein that is elevated in the plasma of rats with adjuvant-induced arthritis, were also used to quantitiate the anti-inflammatory activity.

[2] = Serum triglycerides and cholesterol in normal animals treated for 14 days; assay type: in vivo, rats; conditions: for Cholesterol (% change): serum, normal rats, vs vehicle-treated normal rats
Procedure: Normal animals were also treated with the test retinoids for 14 days and serum samples were collected for the determination of serum triglycerides and cholesterol. Triglyceride and cholesterol levels in the drug-treated animals were compared with triglyceride and cholesterol levels in vehicle-treated animals.

adjuvant arthritis [3] = assay: Established adjuvant arthritis model (chronic adjuvant arthritis test); assay type: in vivo, male Charles River Lewis rats; conditions: 7 days; for Change in Paw Volume (ml) / Change in body weight(g): difference from day 21 to day 28; for % Change in plasma fibrinogen: relative to vehicle-treated arthritic animals
adjuvant arthritis [4] = assay: as above; assay type: in vivo, male Charles River Lewis rats; conditions: for Change in Paw Volume (ml) / Change in body weight(g): difference from day 21 to day 28; for % Change in plasma fibrinogen: relative to vehicle-treated arthritic animals
Procedure: That the compounds of this invention are effective anti-arthritic agents can be seen from the results obtained when these compounds are administered to rats in accordance with the chronic adjuvant arthritis test system disclosed in Billingham and Davies "Handbook of Experimental Pharmacology" (editors J.R. Vane and S.H. Ferreira) Vol. 50/II, pg. 108-144, Springer-Verlag, Berlin, 1979). In this procedure, adjuvant arthritis was induced by the injection on day 0 to 0.10 ml of adjuvant (a suspension of heat-killed, dessicated Mycobacterium butyricum, 0.5% (w/v), in heavy mineral oil containing 0.2% digitonin) subplantarly into the right hind paw ("developing" model) or the base of the tail ("established" model) of male Charles River Lewis rats (120-140 g) that were housed individually and given food and water ad lib. Paw volumes (both hind paws) were measured immediately after injection of the adjuvant. Paw volumes were also measured at selected time intervals to follow the development of inflammation-induced swelling in the arthritic paws by immersion of the paw to the level of the lateral malleolus in a mercury plethysmograph. In the established adjuvant arthritis model [Table 2], the arthritis was allowed to develop untreated for 21 days and then the arthritic animals were divided into experimental groups with approximately equal mean hind paw volumes. Starting on day 21, the arthritic animals were treated by intubation once a day with drugs for 7 days (Tween 80 as vehicle). Arthritic control animals received daily doses of the vehicle only. On day 28, the animals were sacrificed, plasma was collected and plasma fibrinogen levels were determined as described above. Antiinflammatory activity was determined by comparing the change in paw swelling in drug-treated arthritic animals (combined hind paw volume on day 28 minus combined hind paw volume on day 21) with the change in paw swelling in vehicle-treated arthritic animals. Drug-induced changes in plasma fibrinogen were also used to assess the antiinflammatory effects of the test drugs.

[5] = 75 μ Moles/Kg Po. Tween 80, daily for 23 days
[6] = 25 μ Moles/Kg Po. Tween 80, daily for 23 days
[7] = 75 µMoles/Kg p.o. tween 80, 7 days

With `CC1=C(/C=C/C(C)=C/C=C/C(C)=C/C(=O)Nc2ccc(O)cc2)C(C)(C)CCC1` [the 1st table, row 6, 4-hydroxyphenyl retinamide, reference compound] the “% Change in Paw Volume (day 23) left” value (adjuvant arthritis [1]; [5]) was -51* %, the “% Change in Paw Volume (day 23) right” value (adjuvant arthritis [1]; [5]) was -49* % and the “% Change in plasma fibrinogen” value (adjuvant arthritis [1]; [5]) was -42* %. The “Body Weight gain(g)” value (adjuvant arthritis [1]; 75 μ Moles/Kg Po. Tween 80) was 39(37) g and the “Cholesterol (% change)” value ([2]; 75 μ Moles/Kg Po. Tween 80) was “+66* %”.

In the case of `CCCCCCCCCOc1ccsc1/C=C/C(C)=C/C=C/C(C)=C/C(=O)O` [the 1st table, row 4], the “% Change in Paw Volume (day 23) left” value (adjuvant arthritis [1]; [6]) is reported as -50* %, the “% Change in Paw Volume (day 23) right” value (adjuvant arthritis [1]; [6]) is reported as -50* % and the “% Change in plasma fibrinogen” value (adjuvant arthritis [1]; [6]) is reported as -45* %. The “Body Weight gain(g)” value (adjuvant arthritis [1]; 25 μ Moles/Kg Po. Tween 80) was 31(37) g, the “% Change in Paw Volume (day 23) left” value (adjuvant arthritis [1]; [5]) was -84* % and the “% Change in Paw Volume (day 23) right” value (adjuvant arthritis [1]; [5]) was -68* %. The “% Change in plasma fibrinogen” value (adjuvant arthritis [1]; [5]) was -55* %, the “Body Weight gain(g)” value (adjuvant arthritis [1]; 75 μ Moles/Kg Po. Tween 80) was 27(30) g and the “Cholesterol (% change)” value ([2]; 25 μ Moles/Kg Po. Tween 80) was -14* %. The “Cholesterol (% change)” value ([2]; 75 μ Moles/Kg Po. Tween 80) was -25* %.

For `CC1=C(/C=C/C(C)=C/C=C/C(C)=C/C(=O)Nc2ccc(O)cc2)C(C)(C)CCC1` [4-hydroxyphenyl retinamide], the hypertriglyceridemia ([2]; no dose given) was “hypertriglyceridemia” and the serum cholesterol elevation ([2]; no dose given) was “serum cholesterol elevation”.

With `CCCCCCCCCOc1ccsc1/C=C/C(C)=C/C=C/C(C)=C/C(=O)O` [the 2nd table, row 5] the “Change in Paw Volume (ml)” value (adjuvant arthritis [3]; 10 µMoles/Kg i.p. corn oil) was 0.18* (0.86) ml, the “Change in body weight(g)” value (adjuvant arthritis [3]; 10 µMoles/Kg i.p. corn oil) was 11(15) g and the “% Change in plasma fibrinogen” value (adjuvant arthritis [3]; 10 µMoles/Kg i.p. corn oil) was -18* %.

In the case of `CCCCCCCCCOc1ccsc1/C=C/C(C)=C/C=C/C(C)=C/C(=O)O` [the 2nd table, row 3], the “Change in Paw Volume (ml)” value (adjuvant arthritis [4]; 25 µMoles/Kg p.o., 7 days) is reported as 0.15*(0.84) ml, the “Change in body weight(g)” value (adjuvant arthritis [4]; 25 µMoles/Kg p.o., 7 days) is reported as 9(14) g and the “% Change in plasma fibrinogen” value (adjuvant arthritis [4]; 25 µMoles/Kg p.o., 7 days) is reported as -32* %. The “Change in Paw Volume (ml)” value (adjuvant arthritis [4]; [7]) was -0.63*(0.61) ml, the “Change in body weight(g)” value (adjuvant arthritis [4]; [7]) was 5*(15) g and the “% Change in plasma fibrinogen” value (adjuvant arthritis [4]; [7]) was -34* %.

With `CCCCCCCCCOc1cc(C)sc1/C=C/C(C)=C/C=C/C(C)=C/C(=O)O` the “Change in Paw Volume (ml)” value (adjuvant arthritis [4]; [7]) was 0.06* (1.03) ml, the “Change in body weight(g)” value (adjuvant arthritis [4]; [7]) was 15(14) g and the “% Change in plasma fibrinogen” value (adjuvant arthritis [4]; [7]) was -25* %.

In the case of `CCCCOc1ccsc1/C=C/C(C)=C/C=C/C(C)=C/C(=O)O`, the “Change in Paw Volume (ml)” value (adjuvant arthritis [3]; 75 µMoles/Kg i.p. corn oil) is reported as -0.59* (1.14) ml, the “Change in body weight(g)” value (adjuvant arthritis [3]; 75 µMoles/Kg i.p. corn oil) is reported as 11(10) g and the “% Change in plasma fibrinogen” value (adjuvant arthritis [3]; 75 µMoles/Kg i.p. corn oil) is reported as -55* %.
